Assay results from patent US20260250312A1, “ANTIBACTERIAL COMPOUNDS ELIMINATING DORMANT BACTERIAL CELLS” (UNIVERSITÉ D'AIX-MARSEILLE, priority 2022, published 2026).
In brackets after ≈: the same amount, converted by molar mass. Several values for one entry are separate records, joined by “and”; a condition that tells them apart may be missing. Identical values can stand only once. Like-named read-outs stand apart in the source and are kept apart here. Marks after values point to notes of the source that are not given here.

What was measured:
[1] = system: Enterococcus faecalis (ATCC29212); test: Microdilution MIC assay (CLSI-based), E. faecalis; format: cell-based; conditions: 20 hours incubation at 35-37° C., MHB
Procedure, shortened: (§1)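 Broth microdilution per modified CLSI guidelines in Mueller Hinton broth, 200 μL, inoculum ca. 5×10^5 CFU/mL; compounds tested as salts, twofold dilutions from 0.2 mg/mL, in triplicate. MIC determined from OD at 620 nm after incubation.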

[2] = system: Escherichia coli (E. coli) persister cells; test: Anti-persister activity test, persister cells; format: cell-based; conditions: for anti-persister activity (in words): E. coli persister cells, Table 8 conditions
Procedure: (§2) Anti-persister activity test: Escherichia coli (E. coli) persister cells were generated and isolated as described by MARQUES, C. N. H. et al. (Applied and Environmental Microbiology 2014, Vol. 80, No. 22, pp. 6976-6991). E. coli persister cells were compared to E. coli non-persister cells. 1 mL persister or non-persister bacteria culture was added in a 1.5 mL microtube with each of the compounds to be tested or ciprofloxacin as a […], and incubated at 37° C. with 160 rpm shaking for 4 hours. After 4 hours treatment with the compounds, the microtubes were centrifuged at 3,500g for 5 minutes and the pellets were resuspended in 1 mL of fresh drug free RM broth (10 g/L M9 salt, 2% casamino acids, 1 mM MgCl2, 1% glycerol). Resuspended bacteria were then plated over LB agar plates and incubated at 37° C. Bacterial colonies were enumerated after 24, 48 and 96 hours to estimate the survival rate.

[3] = system: E. coli non-persister cells; test: Anti-persister activity test, non-persister cells; format: cell-based, Escherichia coli
Procedure: as §2

[4] = system: Escherichia coli (ATCC28922); test: Microdilution MIC assay (CLSI-based), E. coli; format: cell-based; conditions: 20 hours incubation at 35-37° C., MHB
Procedure, shortened: as §1

[5] = system: Staphylococcus aureus (ATCC25923); test: Microdilution MIC assay (CLSI-based), S. aureus; format: cell-based; conditions: 20 hours incubation at 35-37° C., MHB
Procedure, shortened: as §1

[6] = system: Pseudomonas aeruginosa (ATCC27853); test: Microdilution MIC assay (CLSI-based), P. aeruginosa; format: cell-based; conditions: 20 hours incubation at 35-37° C., MHB
Procedure, shortened: as §1

CHO-K1 cells = test: WST1 cytotoxicity test; format: cell-based, Chinese hamster
Procedure, shortened: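 CHO-K1 cells pre-cultured 24 h, then exposed 24 h at 37 °C to increasing compound concentrations. Viability read as WST-1 formazan absorbance at 450 nm after 20 min; dose-response fitted by nonlinear regression.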

[7] = concentration used 250 μM, 4 hours treatment

| Structure (SMILES) | MIC ([1]; Enterococcus faecalis, ATCC29212, 20 h, read-out: Minimum inhibitory concentration E. faecalis ATCC29212) | anti-persister activity (in words) [2] | viability at 250 µM ([2]; Escherichia coli, 4 h, read-out: Persister cell survival rate 96 h, concentration used 250 μM, 4 hours treatment) [%] | viability at 250 µM ([3]; Escherichia coli, 4 h, read-out: Non-persister cell survival rate 96 h, concentration used 250 μM, 4 hours treatment) [%] | MIC ([4]; Escherichia coli, ATCC28922, 20 h, read-out: Minimum inhibitory concentration E. coli ATCC28922) | MIC ([5]; Staphylococcus aureus, ATCC25923, 20 h, read-out: Minimum inhibitory concentration S. aureus ATCC25923) | MIC ([6]; Pseudomonas aeruginosa, ATCC27853, 20 h, read-out: Minimum inhibitory concentration P. aeruginosa ATCC27853) | toxicity results (in words) (CHO-K1 cells) | IC50 (CHO-K1 cells; Cricetulus griseus, CHO-K1, 24 h, WST1, 24 hours at 37° C., read-out: IC50 CHO) | IC50 (CHO-K1 cells; Cricetulus griseus, CHO-K1, WST1, as printed in Table 8, read-out: Toxicity IC50 CHO) [µM] | Minimum inhibitory concentration E. faecalis ATCC29212 [1] | Persister cell survival rate 96 h [2, 7] [%] | activity on non-persister cells (in words) ([3]; E. coli non-persister cells, Table 8 conditions) | Non-persister cell survival rate 96 h [3, 7] [%] | Minimum inhibitory concentration E. coli ATCC28922 [4] | Minimum inhibitory concentration S. aureus ATCC25923 [5] | Minimum inhibitory concentration P. aeruginosa ATCC27853 [6] | IC50 CHO (CHO-K1 cells; WST1, 24 hours at 37° C.) [µg/mL] | IC50 (CHO-K1 cells; WST1, 24 hours at 37° C., read-out: IC50 CHO) [µM] | IC50 (CHO-K1 cells; WST1, Table 8, read-out: Toxicity IC50 CHO) [µM] |
| --- | --- | --- | --- | --- | --- | --- | --- | --- | --- | --- | --- | --- | --- | --- | --- | --- | --- | --- | --- | --- |
| COC(=O)[C@H](NC(=O)CC[C@@H](C)[C@H]1CCC2C3C(C[C@H](O)[C@@]21C)[C@@]1(C)CC[C@H](NCCCN(CCCN)CCCN)C[C@H]1C[C@H]3O)C(C)C (stereo partly drawn) [Compound S060, methyl ((4R)-4-((3S,5S,7R,10S,12S,13R,17R)-3-((3-(bis(3-aminopropyl)amino)propyl)amino)-7,12-dihydroxy-10,13-dimethylhexadecahydro-1H-cyclopenta[a]phenanthren-17-yl)pentanoyl)-D-valinate] | 160 µM and 128 µg/mL | very potent anti-persister activity | 2 | 3.8 | 160 µM and 128 µg/mL | 40 µM and 32 µg/mL | 160 µM and 128 µg/mL | good toxicity results | 186 µM and 129 µg/mL | 186 | – | – | – | – | – | – | – | – | – | – |
| COC(=O)[C@H](NC(=O)CC[C@@H](C)[C@H]1CCC2C3C(CC[C@@]21C)[C@@]1(C)CC[C@H](NCCCNCCCN)C[C@H]1C[C@H]3O)C(C)C (stereo partly drawn) [Compound S017, methyl ((4R)-4-((3S,5S,7R,10S,13R,17R)-3-((3-((3-aminopropyl)amino)propyl)amino)-7-hydroxy-10,13-dimethylhexadecahydro-1H-cyclopenta[a]phenanthren-17-yl)pentanoyl)-D-valinate] | – | not as good on persister cells | – | – | – | – | – | – | – | – | 25* μM and 16* μg/mL | 0.6 | good activity on non-persister cells | 0.0 | 12.5* μM and 8* μg/mL | 12.5* μM and 8* μg/mL | 50* μM and 32* μg/mL | 33.23 (≈ 53.7 µM) | 53.7 | 53.7 |
